This is an account of results in patent publication US20260028344A1, “CRYSTALLINE FORMS OF LANRAPLENIB AND METHODS OF MAKING AND USING THE SAME” (Kronos Bio, Inc., priority 2022, published 2026).

The nature of the data set: Solubility / biopharmaceutical classification (BCS) of lanraplenib. The data set is classed as physicochemical. The following applies: in physiological conditions.

As for `Nc1cncc(-c2cn3ccnc3c(Nc3ccc(N4CCN(C5COC5)CC4)cc3)n2)n1` [Lanraplenib], the solubility entry is “low”.
